# Structures can show the parent of a compound that is named as a salt.
# What was measured:
# [1] = test system: sleeping induced by pentobarbital; assay: Effect of prolonging the time of sleeping induced by pentobarbital; format: in vivo, ddY-strain male mice; conditions: pentobarbital sodium 50 mg/kg s.c.
# Method: (§1) In Tests 1 to 4 given below, ddY-strain male mice (body weight 20-25 g) were used, and the experiments were carried out in a semi-soundproof, constant-temperature room kept at a temperature of 23±1° C. and a humidity of 55±2%. The mice were allowed to take feed and water freely.
# Test 3: Effect of prolonging the time of sleeping induced by pentobarbital
# The effects of the test compounds on sleeping induced by pentobarbital were examined. The disappearance of righting reflex for 5 seconds or more was used as an index of sleeping. Mice were divided into 10-membered groups. Each of the test compounds was intraperitoneally administered to the mice in the doses indicated. Immediately then, pentobarbital sodium salt was subcutaneously injected into the mice in a dose of 50 mg/kg, and the sleeping time was compared with that of a group to which pentobarbital alone was injected (control).
# ddY-strain male mice = assay: Toxicity test, intraperitoneal (LD50); conditions: 500 mg/kg and 1,000 mg/kg i.p.; result in words
# Method: (§2) Calcium 4-(3,5-dihydroxy-3-methylpentylamide) butyrate was intraperitoneally administered in doses of 500 mg/kg and 1,000 mg/kg respectively to eight ddY-strain male mice (body weight 20 to 25 g).
# in vivo = conditions: mouse, in vivo, ip
# Method: as §2
# [2] = test system: motor activity induced by atropine; assay: Antagonistic effect against atropine (automex method); format: in vivo, ddY-strain male mice; conditions: 600 mg/kg i.p. + atropine 30 mg/kg s.c.
# Method: as §1
# Test 4: Antagonistic effect against atropine (automex method)
# Each of the test compounds was intraperitoneally administered to mice divided into 6-membered groups, and immediately then, atropine was subcutaneously injected into the mice in a dose of 30 mg/kg. The effect of each test compound on the enhancement of motor activity induced by atropine was examined in accordance with the automex method.
# [3] = test system: cycloheximide-induced amnesia model; assay: Effects on CXM-induced amnesia (step-down retention test); format: in vivo, ddY-strain male mice; conditions: for Escape learning latency (mean ± S.E.) / Step-down latency (mean ± S.E.): retention test 24 hours
# Method: The test animals used were ddY-strain male mice (body weight 30-35 g). The experiment was carried out indoors at about 20° C., and the mice were allowed to take feed and water freely. 2. Effects on memorized behaviors
# A device comprised of a floor grid surrounded on four sides by acrylic glass walls each having a lateral dimension of 21 cm and a wooden platform, 4×4×4 cm in size, fixed centrally to the floor grid was placed in a wooden semi-soundproof box having a size of 21×21×40 cm with a 15W electric bulb suspended from its ceiling.
# The floor grid consisted of stainless steel rods, 3 mm in diameter, arranged at intervals of 8 mm. An intermittent electric shock (1 Hz, 0.5 sec., 60 V DC) was applied to the grid by an electric impulse apparatus and an isolator.
# A mouse was placed in a predetermined direction on the platform. Immediately after the mouse stepped down onto the floor grid (when the mouse's four limbs left the platform), an electric shock was applied to the floor grid, and the intermittent application of the electric shock was continued until the mouse climbed up the platform to escape from the electric shock. The time which elapsed until the mouse stepped down from the platform (SDL, step down latency) and the time which elapsed until the mouse escaped to the platform from the electric shock (ELL, escape learning latency) were measured.
# By the same procedure as in the training test, a mouse was placed on the platform, and its step down latency (SDL) was measured. The cut-off time was 300 seconds.
# After the mouse stepped down, or the cut-off time elapsed, the mouse was placed on the floor grid at a corner of the device with its head directed in a direction opposite to the platform. An electric shock was applied to the mouse and its escape learning latency (ELL) was measured.
# Mice divided into groups each consisting of not less than 20 mice were subjected to the training test, and immediately then subcutaneously injected with CXM (150 mg/kg). Twenty-four hours later, the mice was subjected to the retention test.
# Immediately after administration of CXM or application of ECS, a 0.9% normal saline solution of each of the test compounds was intraperitoneally administered to the mice. Separately, a 5% gum arabic solution of CXM was administered to the mice in a control group.
# [4] = test system: motor activity enhanced by methamphetamine; assay: Antagonistic effect against methamphetamine (automex method); format: in vivo, ddY-strain male mice; conditions: for Motor activity (total number of counts): 500 mg/kg i.p. + methamphetamine 3 mg/kg s.c.
# Method: as §1
# Test 2: Antagonistic effect against methamphetamine (automex method)
# Mice were used in 5-membered groups. Each of the test compounds was intraperitoneally administered to the mice in a predetermined dose, and immediately then, the mice were subcutaneously injected with methamphetamine in a dose of 3 mg/kg. The action of the test compounds on motor activity enhanced by methamphetamine was examined in accordance with the automex method given above.
# [5] = test system: locomotor activity of mice; assay: Effects on locomotor activity, wheel cage method; format: in vivo, ddY-strain male mice
# Method: as §1
# Test 1: Effects on locomotor activity
# The effects of the test compound on the locomotor activities of the mice were examined by using wheel cages (made by Kishimoto Ika). […] The mice were used in groups each consisting of 8 mice. The test compound was intraperitoneally administered to the mice in the doses indicated, and immediately then, the mice were put into the cages. The locomotor activities (the number of revolutions) were measured for 90 minutes at 15 minute intervals, and compared with that of the control group.
# [6] = 500 mg/kg i.p., CXM 150 mg/kg s.c.
# [7] = 1000 mg/kg i.p., CXM 150 mg/kg s.c.
smiles,measurement,setting,value
"CC(O)(CCO)CC(=O)NCCCC(=O)O (centres unmarked) [MV-GABA-Ca salt, calcium 4-(3,5-dihydroxy-3-methylpentylamide) butyrate]",Sleeping time,[1]; 1000 mg/kg i.p.,62.7 ± 7.5 min
same,Sleeping time,[1]; 2000 mg/kg i.p.,77.2 ± 5.2 min
same,death,ddY-strain male mice,no case of death
same,LD50,in vivo,> 2000 mg/kg
same,Motor activity (total number of counts),[2]; 5 minutes,8 counts
same,Motor activity (total number of counts),[2]; 10 minutes,12 counts
same,Motor activity (total number of counts),[2]; 15 minutes,19 counts
same,Motor activity (total number of counts),[2]; 20 minutes,27 counts
same,Motor activity (total number of counts),[2]; 25 minutes,47 counts
same,Motor activity (total number of counts),[2]; 30 minutes,92 counts
same,shortening of SDL induced by CXM,"[3]; 500 mg/kg and 1,000 mg/kg, result in words",significantly improved the shortening of SDL
same,Escape learning latency (mean ± S.E.),[3]; [6],10.5 ± 0.6 s
same,Step-down latency (mean ± S.E.),[3]; [6],120.5 ± 10.6 s
same,Escape learning latency (mean ± S.E.),[3]; [7],7.5 ± 0.6 s
same,Step-down latency (mean ± S.E.),[3]; [7],175.2 ± 16.1 s
same,Escape learning latency (mean ± S.E.),"[3]; 1000 mg/kg i.p., without CXM",5.2 ± 0.6 s
same,Step-down latency (mean ± S.E.),"[3]; 1000 mg/kg i.p., without CXM",260.5 ± 14.0 s
same,prolongation of ELL induced by CXM,"[3]; 1,000 mg/kg, result in words",significantly improved the prolongation of ELL
same,memory activating action,"[3]; without CXM, vs control group, result in words",did not show memory activating action
same,Motor activity (total number of counts),[4]; 5 minutes,10 counts
same,Motor activity (total number of counts),[4]; 10 minutes,11 counts
same,Motor activity (total number of counts),[4]; 15 minutes,22 counts
same,Motor activity (total number of counts),[4]; 20 minutes,38 counts
same,Motor activity (total number of counts),[4]; 25 minutes,71 counts
same,Motor activity (total number of counts),[4]; 30 minutes,126 counts
same,antagonistic effect against the increase of motor activity induced by methamphetamine,"[4]; 500 mg/kg, result in words",markedly inhibited the motor activity of mice enhanced by methamphetamine
same,Motor activity (total number of revolutions per mouse),"[5]; 250 mg/kg i.p., 15 minutes",201 revolutions per mouse
same,Motor activity (total number of revolutions per mouse),"[5]; 250 mg/kg i.p., 30 minutes",406 revolutions per mouse
same,Motor activity (total number of revolutions per mouse),"[5]; 250 mg/kg i.p., 45 minutes",560 revolutions per mouse
same,Motor activity (total number of revolutions per mouse),"[5]; 250 mg/kg i.p., 60 minutes",727 revolutions per mouse
same,Motor activity (total number of revolutions per mouse),"[5]; 250 mg/kg i.p., 75 minutes",865 revolutions per mouse
same,Motor activity (total number of revolutions per mouse),"[5]; 250 mg/kg i.p., 90 minutes",916 revolutions per mouse
same,Motor activity (total number of revolutions per mouse),"[5]; 500 mg/kg i.p., 15 minutes",132 revolutions per mouse
same,Motor activity (total number of revolutions per mouse),"[5]; 500 mg/kg i.p., 30 minutes",289 revolutions per mouse
same,Motor activity (total number of revolutions per mouse),"[5]; 500 mg/kg i.p., 45 minutes",448 revolutions per mouse
same,Motor activity (total number of revolutions per mouse),"[5]; 500 mg/kg i.p., 60 minutes",615 revolutions per mouse
same,Motor activity (total number of revolutions per mouse),"[5]; 500 mg/kg i.p., 75 minutes",826 revolutions per mouse
same,Motor activity (total number of revolutions per mouse),"[5]; 500 mg/kg i.p., 90 minutes",1034 revolutions per mouse
same,Motor activity (total number of revolutions per mouse),"[5]; 1000 mg/kg i.p., 15 minutes",76 revolutions per mouse
same,Motor activity (total number of revolutions per mouse),"[5]; 1000 mg/kg i.p., 30 minutes",165 revolutions per mouse
same,Motor activity (total number of revolutions per mouse),"[5]; 1000 mg/kg i.p., 45 minutes",265 revolutions per mouse
same,Motor activity (total number of revolutions per mouse),"[5]; 1000 mg/kg i.p., 60 minutes",428 revolutions per mouse
same,Motor activity (total number of revolutions per mouse),"[5]; 1000 mg/kg i.p., 75 minutes",639 revolutions per mouse
same,Motor activity (total number of revolutions per mouse),"[5]; 1000 mg/kg i.p., 90 minutes",837 revolutions per mouse
